One block for each compound: values may come before it. The source made the active and inactive calls. Rule as the data show it, for most assays here: actives have a measured EC50 and inactives only a lower limit.
Experiments:
[1] = target: T1, Polyadenylate-binding protein 1 (Homo sapiens, UniProt P11940); test: MLLE binding blockers, Cy5 peptide tracer – biochemical, fluorescence polarization, Cy5-PAM2 peptide, secondary, miRNA deadenylation inhibitor project, dose response (AID 602260); type: functional; conditions: read-out: IC50_Mean
T1 sequence (P11940 whole entry, the tested form may be a part): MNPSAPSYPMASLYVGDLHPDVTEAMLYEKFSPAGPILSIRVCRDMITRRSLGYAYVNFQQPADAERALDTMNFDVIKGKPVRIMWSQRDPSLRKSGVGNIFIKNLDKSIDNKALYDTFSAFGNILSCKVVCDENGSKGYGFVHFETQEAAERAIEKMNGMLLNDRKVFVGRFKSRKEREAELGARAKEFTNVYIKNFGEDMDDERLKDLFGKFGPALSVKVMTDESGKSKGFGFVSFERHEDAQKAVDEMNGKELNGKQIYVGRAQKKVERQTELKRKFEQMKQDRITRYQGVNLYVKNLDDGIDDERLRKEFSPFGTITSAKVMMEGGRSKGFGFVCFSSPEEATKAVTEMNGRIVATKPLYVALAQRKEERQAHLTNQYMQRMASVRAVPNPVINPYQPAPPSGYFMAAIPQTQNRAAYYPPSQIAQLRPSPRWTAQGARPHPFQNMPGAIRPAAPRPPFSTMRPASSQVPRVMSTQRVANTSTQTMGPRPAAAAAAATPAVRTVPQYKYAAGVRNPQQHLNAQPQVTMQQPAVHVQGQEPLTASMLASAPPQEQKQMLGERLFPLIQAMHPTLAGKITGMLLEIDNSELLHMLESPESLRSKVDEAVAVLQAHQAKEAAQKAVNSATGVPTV

[2] = target: T1, Polyadenylate-binding protein 1; test: MLLE domain peptide-binding blockers, IC50 – biochemical, fluorescence polarization, FITC-PAM2 peptide, dose response (AID 602259); type: functional; conditions: read-out: IC50_Mean
[3] = target: T2, Fatty acid synthase (Homo sapiens, UniProt P49327); test: inhibition of human FAS-TE enzyme activity – biochemical, kinetic fluorescence intensity, dose response (AID 624326); type: functional;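 also: rate of fluorescence rise from hydrolysis of a fluorogenic O-methyl fluorescein ester substrate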
T2 sequence (P49327 whole entry): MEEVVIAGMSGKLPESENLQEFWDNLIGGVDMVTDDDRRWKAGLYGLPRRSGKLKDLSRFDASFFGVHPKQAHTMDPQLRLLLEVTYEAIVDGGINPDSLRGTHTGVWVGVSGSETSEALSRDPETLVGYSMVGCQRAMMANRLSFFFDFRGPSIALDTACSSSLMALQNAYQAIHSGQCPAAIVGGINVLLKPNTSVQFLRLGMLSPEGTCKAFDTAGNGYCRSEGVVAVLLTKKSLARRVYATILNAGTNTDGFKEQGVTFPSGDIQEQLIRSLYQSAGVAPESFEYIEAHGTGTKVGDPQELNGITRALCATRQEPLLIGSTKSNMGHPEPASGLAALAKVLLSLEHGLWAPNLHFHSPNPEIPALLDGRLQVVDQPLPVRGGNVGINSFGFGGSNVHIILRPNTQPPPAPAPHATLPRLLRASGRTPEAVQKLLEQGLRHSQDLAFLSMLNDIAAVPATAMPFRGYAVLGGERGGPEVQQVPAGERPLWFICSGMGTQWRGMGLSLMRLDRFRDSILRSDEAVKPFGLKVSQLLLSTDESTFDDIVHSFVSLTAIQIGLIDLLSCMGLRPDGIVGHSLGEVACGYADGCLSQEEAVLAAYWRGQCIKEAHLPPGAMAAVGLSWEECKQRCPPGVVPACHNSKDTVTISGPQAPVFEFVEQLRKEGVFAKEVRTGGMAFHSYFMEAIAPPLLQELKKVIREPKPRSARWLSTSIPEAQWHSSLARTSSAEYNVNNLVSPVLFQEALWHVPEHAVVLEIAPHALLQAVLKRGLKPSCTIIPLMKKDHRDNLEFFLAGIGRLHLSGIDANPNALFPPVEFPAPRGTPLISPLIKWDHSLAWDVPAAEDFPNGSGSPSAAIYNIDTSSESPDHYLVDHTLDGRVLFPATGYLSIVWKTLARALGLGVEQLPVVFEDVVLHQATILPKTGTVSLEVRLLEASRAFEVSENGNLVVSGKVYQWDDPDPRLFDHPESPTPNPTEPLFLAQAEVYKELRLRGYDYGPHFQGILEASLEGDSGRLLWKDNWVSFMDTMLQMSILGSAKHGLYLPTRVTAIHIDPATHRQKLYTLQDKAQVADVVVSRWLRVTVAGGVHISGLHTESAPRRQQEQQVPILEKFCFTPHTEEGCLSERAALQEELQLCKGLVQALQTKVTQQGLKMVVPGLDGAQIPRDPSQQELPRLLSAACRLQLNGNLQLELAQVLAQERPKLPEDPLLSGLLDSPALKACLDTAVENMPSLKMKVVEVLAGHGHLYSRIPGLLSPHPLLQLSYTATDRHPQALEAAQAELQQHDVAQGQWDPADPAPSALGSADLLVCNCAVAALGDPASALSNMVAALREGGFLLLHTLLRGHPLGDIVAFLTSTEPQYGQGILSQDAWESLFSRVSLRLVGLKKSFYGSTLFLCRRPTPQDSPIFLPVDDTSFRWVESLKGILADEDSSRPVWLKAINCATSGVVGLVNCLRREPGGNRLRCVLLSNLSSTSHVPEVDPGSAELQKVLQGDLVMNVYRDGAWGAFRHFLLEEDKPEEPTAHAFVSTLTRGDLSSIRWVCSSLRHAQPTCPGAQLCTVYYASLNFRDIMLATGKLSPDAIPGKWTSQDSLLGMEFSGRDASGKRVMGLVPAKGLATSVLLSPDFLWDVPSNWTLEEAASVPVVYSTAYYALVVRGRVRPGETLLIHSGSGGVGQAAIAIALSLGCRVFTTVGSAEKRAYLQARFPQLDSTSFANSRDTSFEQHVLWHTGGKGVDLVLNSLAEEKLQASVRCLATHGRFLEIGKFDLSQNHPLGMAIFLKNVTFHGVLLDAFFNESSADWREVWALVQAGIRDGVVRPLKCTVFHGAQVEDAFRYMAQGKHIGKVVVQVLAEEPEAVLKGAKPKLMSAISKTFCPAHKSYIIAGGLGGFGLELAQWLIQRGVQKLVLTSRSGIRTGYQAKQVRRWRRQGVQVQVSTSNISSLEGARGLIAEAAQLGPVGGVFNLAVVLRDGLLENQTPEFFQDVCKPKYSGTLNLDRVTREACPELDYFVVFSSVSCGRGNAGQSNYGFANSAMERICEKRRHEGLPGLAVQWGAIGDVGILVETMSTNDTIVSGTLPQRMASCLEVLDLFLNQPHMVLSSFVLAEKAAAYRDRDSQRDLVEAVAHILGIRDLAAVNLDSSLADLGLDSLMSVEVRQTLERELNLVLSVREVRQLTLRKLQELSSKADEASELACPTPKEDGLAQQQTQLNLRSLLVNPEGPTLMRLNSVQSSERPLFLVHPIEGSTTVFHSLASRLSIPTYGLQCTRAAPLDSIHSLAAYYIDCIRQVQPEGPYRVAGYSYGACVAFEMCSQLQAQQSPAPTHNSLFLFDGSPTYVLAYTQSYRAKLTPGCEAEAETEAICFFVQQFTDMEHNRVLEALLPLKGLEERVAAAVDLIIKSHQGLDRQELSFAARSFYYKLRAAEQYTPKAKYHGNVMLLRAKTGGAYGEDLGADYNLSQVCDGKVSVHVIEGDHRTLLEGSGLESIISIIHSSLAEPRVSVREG

[4] = reduction of Shn3 3'UTR-driven luciferase in osteoblasts – cell-based, Clone20 osteoblasts, firefly luciferase, cherry-picked, dose response (AID 624132); type: functional;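 also: firefly luciferase luminescence from reporter carrying the Shn3 3'UTR in osteoblasts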
[5] = target: T2, Fatty acid synthase; test: inhibition of human FAS-TE enzyme activity – biochemical, endpoint fluorescence intensity, uHTS hits, dose response (AID 624327); type: functional;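 also: fluorescence from hydrolysis of an O-methyl fluorescein acyl ester substrate by the enzyme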
[6] = NIH-3T3 fibroblast cytotoxicity, dose response, cytotoxicity control, cell-based, fluorescence, Alamar Blue, secondary assay (AID 2327); type: functional;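 also: NIH-3T3 mouse fibroblasts cultured with fluconazole at 8 µg/mL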
[7] = fluconazole-exposed Candida albicans growth modulators – fluorescence, retest, confirmation (AID 2467); type: functional, cell-based
[8] = cells; type: functional, cell-based
[9] = Trypanosoma cruzi growth suppression in host cells – NIH3T3 host cells, beta-gal luminescence, confirmation (AID 2044); type: functional, cell-based;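 also: intracellular parasites grown in NIH/3T3 mouse fibroblasts as host cells; luminescent beta-galactosidase reporter signal from transgenic T. cruzi replicating inside host cells; inhibitors lower the luminescence signal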
[10] = cells; type: functional, cell-based; remark: listed apart in the source
[11] = NIH3T3 cell viability loss – ATP luminescence, mouse fibroblasts, counter-screen, dose response (AID 2010); type: functional, cell-based;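 also: cells exposed to compound for about 90 hours before reading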
[12] = test system: INS1; test: INS-1E survival protection against cytokine death – cell-based, luminescence, retest, dose response (AID 449756); type: functional; conditions: Rattus norvegicus;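 also: cell death triggered by IL-1 beta plus TNF-alpha plus IFN-gamma mixture; protective hits raise ATP signal compared with cytokine alone wells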
[13] = target: T3, Corticotropin-releasing factor receptor 2/Corticotropin-releasing factor-binding protein (Homo sapiens, UniProt P24387+Q13324); test: activators of CRF receptor 2 with binding protein – uHTS hits, confirmation (AID 602473); type: functional; conditions: read-out: EC50_Mean
T3 sequence (Q13324 whole entry): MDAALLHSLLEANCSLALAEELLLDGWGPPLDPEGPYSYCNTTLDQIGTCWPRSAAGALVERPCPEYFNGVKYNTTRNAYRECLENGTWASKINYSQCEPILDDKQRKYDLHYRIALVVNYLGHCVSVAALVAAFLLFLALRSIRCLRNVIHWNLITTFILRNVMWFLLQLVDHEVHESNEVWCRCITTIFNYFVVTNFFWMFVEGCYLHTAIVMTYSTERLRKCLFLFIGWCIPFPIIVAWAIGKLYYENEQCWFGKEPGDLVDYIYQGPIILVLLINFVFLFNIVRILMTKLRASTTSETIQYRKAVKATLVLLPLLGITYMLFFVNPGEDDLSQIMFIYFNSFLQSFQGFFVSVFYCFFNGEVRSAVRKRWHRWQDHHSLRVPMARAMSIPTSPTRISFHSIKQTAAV
T3 sequence (P24387 whole entry): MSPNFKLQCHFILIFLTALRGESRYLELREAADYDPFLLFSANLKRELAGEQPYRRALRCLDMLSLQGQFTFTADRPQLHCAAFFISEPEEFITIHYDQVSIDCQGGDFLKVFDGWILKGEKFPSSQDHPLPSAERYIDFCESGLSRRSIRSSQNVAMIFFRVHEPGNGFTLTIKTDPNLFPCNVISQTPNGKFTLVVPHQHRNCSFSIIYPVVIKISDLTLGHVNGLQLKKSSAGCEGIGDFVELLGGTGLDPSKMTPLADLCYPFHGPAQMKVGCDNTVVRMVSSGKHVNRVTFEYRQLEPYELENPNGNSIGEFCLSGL

- IC50 [1]: > 66 µM (inactive)
- IC50 [2]: > 66 µM (inactive)
Compound: O=C(Cn1nnc(-c2cc(C(F)(F)F)cc(C(F)(F)F)c2)n1)NN=C(S)Nc1ccc(Cl)cc1

- IC50 [1]: > 66 µM (inactive)
- IC50 [2]: > 66 µM (inactive)
Compound: CCc1c(O)nc(SCC(=O)N2CCc3cc(OC)c(OC)cc3[C@@H]2C)nc1O

- IC50 [3]: 11.9 µM (active)
Compound: O=C(c1ccc(Cl)c([N+](=O)[O-])c1)N1CCN(c2ccccc2)CC1

- IC50 [5]: 11.1 µM (active)
- IC50 [3]: 26.7 µM (inactive)
Compound: O=C(Cn1c(=O)c2sccc2n(Cc2cccc([N+](=O)[O-])c2)c1=O)NCCc1ccccc1

- IC50 [5]: 13.8 µM (active)
- IC50 [3]: 9.77 µM (active)
Compound: O=C(NCC1CCCCC1)c1cc([N+](=O)[O-])ccc1Cl

- IC50 [1]: > 66 µM (inactive)
- IC50 [2]: > 66 µM (inactive)
Compound: CC1=NN(c2ccccc2)C(=O)C1C(=S)SC1CC(=O)NC1=O (centres undefined)

- EC50 [13]: > 53 µM (inactive)
Compound: O=C1CSC(=S)N1N=Cc1c(F)cccc1Cl

Second part, the compound before the results:

Compound: CC1(Cc2ccc(OC(F)(F)F)cc2)C(=O)Nc2c(Cl)ccc(Cl)c21 (centres undefined)
- AC50 [4]: 25.7 µM (active)

Compound: C=C(C)CSc1nc(O)cc(C)c1C#N
- EC50 [6]: > 150 µM (inactive)
- EC50 [7]: 1.86 µM (active)

Compound: CN(C)S(=O)(=O)c1cccc(NC(=S)N/N=C/c2cc(Br)ccc2O)c1
- EC50 [6]: > 150 µM (inactive)
- EC50 [8]: 7.76 µM (active)
- EC50 [7]: 2.83 µM (active)
- EC50 [9]: 2.27 µM (active)
- EC50 [10]: > 350 µM (not active)
- EC50 [11]: > 60 µM (not active)
- AC50 [12]: 0.481 µM (active)

Compound: CCOC(=O)Cc1csc(NC(=O)CSc2nc(O)c3c(C)c(C(=O)O)sc3n2)n1
- EC50 [6]: 104 µM (active)
- EC50 [7]: 5.45 µM (active)

Compound: COc1ccc(C(=O)NN/C(C)=C/C(=O)C(F)(F)C(F)(F)C(F)(F)F)cc1
- EC50 [6]: 47.2 µM (active)
- EC50 [7]: 0.384 µM (active)
- AC50 [12]: 32.5 µM (active)

Compound: O=C(NCCc1ccccc1)c1c(O)c2cccc3c2n(c1=O)CC3
- EC50 [6]: > 150 µM (inactive)
- EC50 [7]: > 38 µM (not active)
